From article PMC7383220 (BioFactors (Oxford, England), 2018)

Assays:
[1] = system: BCRP; conditions: read-out: Ki as BCRP inhibitor in vitro; cited from earlier work
[2] = system: HeLa1A1 cells; experiment: BDMC-O-glucuronide excretion experiments in HeLa1A1 cells; assay type: cell-based, human; conditions: inhibitor 5 and 20 μM, 5 μM BDMC, versus control
[3] = molecular target: T1, UGT1A1 (Homo sapiens, UniProt P22309); assay type: biochemical; conditions: inhibitor 5 and 20 μM
T1 sequence (P22309 26-533): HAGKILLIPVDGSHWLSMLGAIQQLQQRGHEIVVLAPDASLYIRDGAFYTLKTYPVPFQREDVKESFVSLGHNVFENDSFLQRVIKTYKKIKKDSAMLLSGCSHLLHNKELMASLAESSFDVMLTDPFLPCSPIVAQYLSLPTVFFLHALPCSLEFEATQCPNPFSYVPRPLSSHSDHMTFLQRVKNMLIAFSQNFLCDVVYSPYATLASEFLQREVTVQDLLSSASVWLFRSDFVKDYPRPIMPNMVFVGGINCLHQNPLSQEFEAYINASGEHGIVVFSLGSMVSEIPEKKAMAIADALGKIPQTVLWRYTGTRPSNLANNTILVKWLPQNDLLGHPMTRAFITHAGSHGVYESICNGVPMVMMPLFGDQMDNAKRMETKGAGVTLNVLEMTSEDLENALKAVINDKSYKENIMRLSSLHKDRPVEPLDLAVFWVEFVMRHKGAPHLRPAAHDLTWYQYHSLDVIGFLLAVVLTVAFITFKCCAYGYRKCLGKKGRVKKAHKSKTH

[4] = molecular target: T2, HeLa1A1 cell lysate (Homo sapiens, UniProt P22309); assay type: biochemical; conditions: inhibitor 5 and 20 μM
T2 sequence (P22309 26-533): T1 sequence (P22309 26-533)

[5] = system: BCRP; conditions: read-out: IC50 as BCRP inhibitor; cited from earlier work
[6] = orally administered; cited from earlier work
[7] = estimated from in vivo metabolism of curcumin and demethoxycurcumin; cited from earlier work
[8] = molecular target: T1, UGT1A1; experiment: Glucuronidation kinetics by expressed UGT1A1; conditions: human, recombinant UGT1A1, pH 7.4
[9] = molecular target: T1, UGT1A1; experiment: Glucuronidation kinetics by HeLa1A1 cell lysate; conditions: human, HeLa1A1 cell lysate (HeLa cells expressing UGT1A1), pH 7.4
[10] = molecular target: aldoketo reductase 1B10; conditions: read-out: Ki against aldoketo reductase 1B10; tumor marker; cited from earlier work
[11] = system: Hela cells; experiment: Toxicity of BDMC on Hela cells; assay type: cell-based, human; conditions: within experimental concentration (maximal 8 μM)

For `COc1cc(/C=C/C(=O)CC(=O)/C=C/c2ccc(O)c(OC)c2)ccc1O` [curcumin], the Ki [1] is given as 700 ± 410 nM.

With `COc1ccc2c3c([nH]c2c1)[C@H](CC(C)C)N1C(=O)[C@H](CCC(=O)OC(C)(C)C)NC(=O)[C@@H]1C3` [Ko143] the “Increase of intracellular levels of BDMC-O-glucuronide” value ([2]; cells collected at 2 h) was 28.8–48.1%, the “Decrease of BDMC-O-glucuronide excretion” value [2] was 18.4–55.6% and the “Effect on glucuronidation of BDMC by UGT1A1 enzyme” value [3] was “inhibit”. For the same compound, the “Effect on glucuronidation of BDMC by HeLa1A1 cell lysate” value [4] was “inhibit” and the IC50 [5] was […].

For `O=C(/C=C/c1ccc(O)cc1)CC(=O)/C=C/c1ccc(O)cc1` [BDMC, Bisdemethoxycurcumin], the “Glucuronide in general blood circulation” value [6] is given as “Approximately 50 nM”, the “Glucuronide/sulfate conjugates in general blood circulation” value [6] is given as “about 10 nM” and the “Fraction of ingested compound excreted in feces without absorption” value [7] is given as “over 75%”. For the same compound, the microsomal CLint [8] was 235 ± 34.5 µL/min/mg, the microsomal CLint [9] was 164 ± 19.8 µL/min/mg and the Ki [10] was 22 nM. For the same compound, the “Toxicity on Hela cells” value [11] was “no significant toxicities”.
